Data as given in US20240140986A1, “SYNTHETIC URSOLIC ACID DERIVATIVES AND METHODS OF USE THEREOF” (REATA PHARMACEUTICALS, INC., priority 2021, published 2024).
Like-named read-outs stand apart in the source and are kept apart here.

Columns and labels:
[1] = system: IFNγ-induced NO production in RAW 264.7 cells; assay: Nitric Oxide Suppression Assay (IFNγ-induced NO, Griess nitrite readout); type: cell-based, mouse; details: for IC50: Mus musculus; for Avg NO IC50 Relative to RTA402 (fold): Table 2, ratio to RTA402
In short: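 RAW 264.7 mouse macrophages in RPMI 1640 with 0.5% FBS were pretreated 2 h with compound (0.1% DMSO final), then stimulated with 20 ng/mL IFNγ for 24 h at 37° C. Supernatant nitrite was read by Griess absorbance at 525 nm against a nitrite standard curve, normalized to DMSO-IFNγ wells; IC50 from curve fit. Viability by WST-1.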

[2] = system: Nrf2 / ARE-dependent luciferase in AREc32 reporter cell line; assay: AREc32 luciferase reporter activation (Nrf2 induction); type: cell-based, human; details: for EC (2-fold): Homo sapiens, Arec32; for Relative Avg AREc32 EC2X Relative to RTA402 (fold): ratio to RTA402
In short: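 EC2X is the concentration raising luminescence 2-fold above DMSO-treated cells, from a nonlinear-regression dose–response fit. Compounds (0.03–1000 nM) were applied for nineteen hours, starting one day after seeding 20,000 reporter cells per well. Luciferase was read with One-Glo reagent.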

[3] = RAW264.7, Table 2, RAW 264.7 cells, 2 h pretreatment, 20 ng/mL interferon gamma 24 h, read-out: Avg NO IC50 (nM) (Mean ± SD)
[4] = RAW264.7, Table 3, ursolic acid derivatives, read-out: Avg NO IC50 (nM) (Mean ± SD)
[5] = Table 2, concentration increasing luminescence 2-fold above vehicle, 19 h treatment, read-out: Avg AREc32 EC2X (nM) (Mean ± SD)
[6] = Table 3, ursolic acid derivatives, read-out: Avg ARE EC-2X (nM) (Mean ± SD)
[7] = RAW264.7, Table 3, oleanolic acid derivative analogs, read-out: Avg NO IC50
[8] = Table 3, oleanolic acid derivative analogs, read-out: Avg ARE EC-2X

Row | IC50 [1, 3] | IC50 [1, 4] | Avg NO IC50 Relative to RTA402 (fold) [1] | SMILES | EC (2-fold) [2, 5] | EC (2-fold) [2, 6] | Relative Avg AREc32 EC2X Relative to RTA402 (fold) ([2]; Table 2) | IC50 [1, 7] | EC (2-fold) [2, 8]
1 | 14.6 ± 3 nM | 14.6 ± 3 nM | 5.21 ± 2.77 fold | C[C@@H]1[C@H]2[C@H]3C(=O)C=C4[C@@]5(C)C=C(C#N)C(=O)C(C)(C)[C@@H]5CC[C@@]4(C)[C@]3(C)CC[C@@]2(CN2CCC2)CC[C@H]1C [Compound T55] | 14.4 ± 1.3 nM | 14.4 ± 1.3 nM | 1.12 ± 0.09 fold | – | –
2 | – | – | – | CC1(C)CC[C@]2(CN3CCOC3)CC[C@]3(C)[C@H](C(=O)C=C4[C@@]5(C)C=C(C#N)C(=O)C(C)(C)[C@@H]5CC[C@]43C)[C@@H]2C1 [CC42, reference compound] | – | – | – | 17.3 nM | 122 nM
3 | 52.4 ± 13.8 nM | – | 36.7 ± 17^ fold | C[C@@H]1[C@H]2[C@H]3C(=O)C[C@@H]4[C@@]5(C)C=C(C#N)C(=O)C(C)(C)[C@@H]5CC[C@@]4(C)[C@]3(C)CC[C@@]2(CCC(=O)N2CCC2)CC[C@H]1C [Compound T105] | 103 ± 37 nM | – | 10.7 ± 3.3 fold | – | –
4 | 4.5 ± 1.84 nM | – | 1.25 ± 0.13 fold | CCNC(=O)CC[C@]12CC[C@@H](C)[C@H](C)[C@H]1[C@H]1C(=O)C=C3[C@@]4(C)C=C(C#N)C(=O)C(C)(C)[C@@H]4CC[C@@]3(C)[C@]1(C)CC2 [Compound T79] | 4.32 ± 0.5 nM | – | 0.361 ± 0.028 fold | – | –
5 | 15.2 ± 4.3 nM | – | 4.45 ± 1.25 fold | C[C@@H]1[C@H]2[C@H]3C(=O)C=C4[C@@]5(C)C6O[C@@]6(C#N)C(=O)C(C)(C)[C@@H]5CC[C@@]4(C)[C@]3(C)CC[C@@]2(CNC(=O)C2CC2)CC[C@H]1C (stereo partly shown) [Compound T98] | 6.85 ± 0.51 nM | – | 0.574 ± 0.052 fold | – | –
6 | 8.19 ± 2 nM | 8.19 ± 2 nM | 2.70 ± 0.52 fold | C[C@@H]1[C@H]2[C@H]3C(=O)C=C4[C@@]5(C)C=C(C#N)C(=O)C(C)(C)[C@@H]5CC[C@@]4(C)[C@]3(C)CC[C@@]2(Cn2cncn2)CC[C@H]1C [Compound T47] | 7.08 ± 1.2 nM | 7.1 ± 1.2 nM | 0.573 ± 0.139 fold | – | –
7 | – | – | – | Cc1nnc([C@]23CCC(C)(C)C[C@H]2[C@H]2C(=O)C=C4[C@@]5(C)C=C(C#N)C(=O)C(C)(C)[C@@H]5CC[C@@]4(C)[C@]2(C)CC3)o1 [CC69, reference compound] | – | – | – | 2.2 nM | 9.81 nM
8 | 26.8 ± 4.7 nM | – | 9.84 ± 1.92 fold | CNC(=O)[C@]12CC[C@@H](C)[C@H](C)[C@H]1[C@H]1C(=O)C=C3[C@@]4(C)C=C(C#N)C(=O)C(C)(C)[C@@H]4CC[C@@]3(C)[C@]1(C)CC2 [Compound T85] | 19 ± 3.5 nM | – | 1.63 ± 0.17 fold | – | –
9 | 57.4 ± 15.7 nM | – | 37.4 ± 3.76 fold | C[C@@H]1[C@H]2[C@H]3C(=O)C[C@@H]4[C@@]5(C)C=C(C#N)C(=O)C(C)(C)[C@@H]5CC[C@@]4(C)[C@]3(C)CC[C@@]2(CNC(=O)OC(C)(C)C)CC[C@H]1C [Compound T106] | 265 ± 21 nM | – | 28.2 ± 4.5 fold | – | –
10 | 22.1 ± 4.2 nM | – | 14.60 ± 0.59 fold | CCNC(=O)CC[C@]12CC[C@@H](C)[C@H](C)[C@H]1[C@H]1C(=O)C[C@@H]3[C@@]4(C)C=C(C#N)C(=O)C(C)(C)[C@@H]4CC[C@@]3(C)[C@]1(C)CC2 [Compound T103] | 43.1 ± 10.4 nM | – | 4.52 ± 0.90 fold | – | –
11 | 14.8 ± 4.7 nM | – | 5.92 ± 0.69 fold | Cc1noc([C@]23CC[C@@H](C)[C@H](C)[C@H]2[C@H]2C(=O)C=C4[C@@]5(C)C6O[C@@]6(C#N)C(=O)C(C)(C)[C@@H]5CC[C@@]4(C)[C@]2(C)CC3)n1 (stereo partly shown) [Compound T99] | 10.4 ± 0.8 nM | – | 0.864 ± 0.046 fold | – | –
12 | – | – | – | CC1(C)CC[C@]2(n3ccnc3)CC[C@]3(C)[C@H](C(=O)C=C4[C@@]5(C)C=C(C#N)C(=O)C(C)(C)[C@@H]5CC[C@]43C)[C@@H]2C1 [CC62, reference compound] | – | – | – | 3.2 nM | 26.8 nM
13 | 5.53 ± 1.8 nM | 5.5 ± 1.8 nM | 2.03 ± 0.67 fold | C[C@@H]1[C@H]2[C@H]3C(=O)C=C4[C@@]5(C)C=C(C#N)C(=O)C(C)(C)[C@@H]5CC[C@@]4(C)[C@]3(C)CC[C@@]2(CN2CCN(C)C2=O)CC[C@H]1C [Compound T44] | 5.73 ± 1.79 nM | 5.73 ± 1.79 nM | 0.53 ± 0.13 fold | – | –
14 | 5.69 ± 1.93 nM | – | 3.06 ± 1.70 fold | C[C@@H]1[C@H]2[C@H]3C(=O)C=C4[C@@]5(C)C=C(C#N)C(=O)C(C)(C)[C@@H]5CC[C@@]4(C)[C@]3(C)CC[C@@]2(CC(=O)N2CCC2)CC[C@H]1C [Compound T93] | 4.24 ± 0.66 nM | – | 0.525 ± 0.129 fold | – | –
15 | 5.58 ± 0.32 nM | 5.58 ± 0.32 nM | 3.69 ± 0.82 fold | Cc1nc([C@]23CC[C@@H](C)[C@H](C)[C@H]2[C@H]2C(=O)C=C4[C@@]5(C)C=C(C#N)C(=O)C(C)(C)[C@@H]5CC[C@@]4(C)[C@]2(C)CC3)no1 [Compound T82] | 10 ± 3 nM | 10 ± 3 nM | 1.01 ± 0.11 fold | – | –
16 | 3.07 ± 1.43 nM | 3.07 ± 1.43 nM | 0.80 ± 0.13 fold | CCC(=O)NC[C@]12CC[C@@H](C)[C@H](C)[C@H]1[C@H]1C(=O)C=C3[C@@]4(C)C=C(C#N)C(=O)C(C)(C)[C@@H]4CC[C@@]3(C)[C@]1(C)CC2 [Compound T23] | 1.89 ± 0.91 nM | 1.89 ± 0.91 nM | 0.166 ± 0.071 fold | – | –
17 | – | – | – | C[C@@H]1[C@H]2[C@H]3C(=O)C=C4[C@@]5(C)C=C(C#N)C(=O)C(C)(C)[C@@H]5CC[C@@]4(C)[C@]3(C)CC[C@@]2(N2CCOC2=O)CC[C@H]1C [CC59, reference compound] | – | – | – | 2.2 nM | 23.6 nM
18 | 11.3 ± 2.4 nM | – | 5.37 ± 0.71 fold | C[C@@H]1[C@H]2[C@H]3C(=O)C=C4[C@@]5(C)C=C(C#N)C(=O)C(C)(C)[C@@H]5CC[C@@]4(C)[C@]3(C)CC[C@@]2(c2nc(COC(C)(C)C)no2)CC[C@H]1C [Compound T9] | 19.3 ± 4.5 nM | – | 1.84 ± 0.20 fold | – | –
19 | 16.9 ± 5 nM | 16.9 ± 5 nM | 4.94 ± 1.27 fold | Cc1nnc([C@]23CC[C@@H](C)[C@H](C)[C@H]2[C@H]2C(=O)C=C4[C@@]5(C)C=C(C#N)C(=O)C(C)(C)[C@@H]5CC[C@@]4(C)[C@]2(C)CC3)o1 [Compound T69] | 8.08 ± 1.98 nM | 8.08 ± 1.98 nM | 0.673 ± 0.139 fold | – | –
20 | – | – | – | CC1(C)CC[C@]2(Cn3ccnn3)CC[C@]3(C)[C@H](C(=O)C=C4[C@@]5(C)C=C(C#N)C(=O)C(C)(C)[C@@H]5CC[C@]43C)[C@@H]2C1 [CC50, reference compound] | – | – | – | 1.1 nM | 9.57 nM
21 | – | – | – | CN1CCN(C[C@]23CCC(C)(C)C[C@H]2[C@H]2C(=O)C=C4[C@@]5(C)C=C(C#N)C(=O)C(C)(C)[C@@H]5CC[C@@]4(C)[C@]2(C)CC3)C1=O [CC44, reference compound] | – | – | – | 1.2 nM | 6.07 nM
22 | 5.1 ± 1.02 nM | – | 2.51 ± 0.94 fold | COCc1noc([C@]23CC[C@@H](C)[C@H](C)[C@H]2[C@H]2C(=O)C=C4[C@@]5(C)C=C(C#N)C(=O)C(C)(C)[C@@H]5CC[C@@]4(C)[C@]2(C)CC3)n1 [Compound T3] | 6.16 ± 1.02 nM | – | 0.598 ± 0.137 fold | – | –
23 | 60.6 ± 0.9 nM | – | 28.1 ± 9.62 fold | C[C@@H]1[C@H]2[C@H]3C(=O)C=C4[C@@]5(C)C6O[C@@]6(C#N)C(=O)C(C)(C)[C@@H]5CC[C@@]4(C)[C@]3(C)CC[C@@]2(NC(=O)C(C)(F)F)CC[C@H]1C (stereo partly shown) [Compound T100] | 29.4 ± 3.69 nM | – | 2.87 ± 0.59 fold | – | –
24 | 23 ± 4.1 nM | – | 13.7 ± 5.76 fold | CC(=O)N[C@]12CC[C@@H](C)[C@H](C)[C@H]1[C@H]1C(=O)C=C3[C@@]4(C)C=C(C#N)C(=O)C(C)(C)[C@@H]4CC[C@@]3(C)[C@]1(C)CC2 [Compound T18] | 27.3 ± 5.8 nM | – | 1.97 ± 0.24 fold | – | –
25 | 5.11 ± 1.69 nM | – | 1.49 ± 0.35 fold | C[C@@H]1[C@H]2[C@H]3C(=O)C=C4[C@@]5(C)C=C(C#N)C(=O)C(C)(C)[C@@H]5CC[C@@]4(C)[C@]3(C)CC[C@@]2(CNC(=O)C2CCC2)CC[C@H]1C [Compound T25] | 2.88 ± 0.13 nM | – | 0.259 ± 0.036 fold | – | –
